Data as given in patent US10472393B2, “Method for inhibiting ADAM proteases with cyclic peptides” (Cancer Research Technology Limited, priority 2007, dated 2019).
*1 amine or outer side, *2 acyl side, *3 side chain or, on linkers, in order; H or OH if unused. Where a SMILES comes first, the peptide text is derived from it. Where no end group is shown, it is not given here. [ ]: non-standard residue; d: D form. isoSer(2S) = O=C([C@@H](O)CN[*:1])[*:2]

What was measured:
recombinant ADAM8 = molecular target: T1, recombinant ADAM8 (Mus musculus, UniProt Q05910); assay: Fluorescence assay of purified recombinant ADAM8 with fluorogenic CD23 peptide substrate; format: biochemical; conditions: for inhibition of ADAM8 proteolytic activity: FIG. 1B, peptides at 100 nM
T1 sequence (Q05910 17-826): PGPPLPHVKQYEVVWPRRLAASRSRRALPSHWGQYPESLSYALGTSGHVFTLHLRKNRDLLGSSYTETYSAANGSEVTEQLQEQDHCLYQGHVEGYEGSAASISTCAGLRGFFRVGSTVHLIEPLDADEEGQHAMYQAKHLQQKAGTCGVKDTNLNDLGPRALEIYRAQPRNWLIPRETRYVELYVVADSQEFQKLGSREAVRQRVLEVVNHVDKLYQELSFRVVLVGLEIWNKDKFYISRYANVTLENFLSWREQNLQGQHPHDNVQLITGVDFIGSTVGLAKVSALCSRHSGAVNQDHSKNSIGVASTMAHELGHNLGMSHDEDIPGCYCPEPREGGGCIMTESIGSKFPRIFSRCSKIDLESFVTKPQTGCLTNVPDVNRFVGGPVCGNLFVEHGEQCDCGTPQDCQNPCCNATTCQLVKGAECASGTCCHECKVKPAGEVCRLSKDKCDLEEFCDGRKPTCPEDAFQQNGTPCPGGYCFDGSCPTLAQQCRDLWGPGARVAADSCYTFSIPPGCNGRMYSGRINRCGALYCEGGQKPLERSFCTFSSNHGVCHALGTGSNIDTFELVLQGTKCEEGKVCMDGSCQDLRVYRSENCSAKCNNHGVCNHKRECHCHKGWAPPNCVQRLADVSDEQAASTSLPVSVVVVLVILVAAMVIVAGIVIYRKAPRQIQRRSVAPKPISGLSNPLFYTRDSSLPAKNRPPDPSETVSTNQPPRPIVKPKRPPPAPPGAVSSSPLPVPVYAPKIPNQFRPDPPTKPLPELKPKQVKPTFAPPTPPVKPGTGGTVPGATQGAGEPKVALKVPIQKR
Method: In the following example, the ability of cyclic peptides to inhibit the activity of a recombinant ADAM8 was tested in fluorescence assays using a fluorogenic ADAM8 substrate (Moss and Rasmussen, 2007).
(§1) Activity of purified recombinant ADAM8 was assessed by using a fluorogenic CD23 peptide (Dabcyl-[…](5-FAM)-CONH2, SEQ ID NO:19) as a substrate. 50 ng substrate was incubated with 100 ng of ADAM8 in assay buffer (25 mM TrisHCl pH 7.5, 10 mM CaCl2, 150 mM NaCl) at 37° C. in the time range of 0 to 18 hours. Potential ADAM8 inhibitors were preincubated for 30 min before addition of the substrate. As a negative control, CD23 was incubated with assay buffer. For determination of ADAM10 activity, 100 ng of the recombinant ADAM10 protein (R&D systems) was used in conjunction with the fluorogenic substrate Dabcyl-LAQA(HomoPhe) RSC (Fluorescein)-NH2 (SEQ ID NO:55) in assay buffer (TrisHCl pH 9.0, 2.5 μM ZnCl2). For both assays the final volume in each well was 150 μl. Activity was measured as increase in fluorescence resulting from ADAM8/ADAM10 to cleave the quenched fluorescent substrates (λ excitation: 485 nm; λ emission: 520 nm) using a BMG Optima plate reader fluorometer.

[1] = test system: mouse fibroblast (L929) cells overexpressing ADAM8; assay: Matrigel invasion assay, L929 fibroblast cells overexpressing ADAM8; format: cell-based; conditions: FIG. 11; peptide 5 μM
Method: (§2) In this example, the ability of cyclic peptide to inhibit ADAM8 mediated tumour cell migration through an artificial extracellular matrix (Matrigel®) was measured in a cell invasion assay. Rat glioma C6 cells were stably transfected with full length ADAM8 cDNA [Schlomann et al, 2002]. Untransfected C6 glioma cells served as controls. 5×10^4 cells were suspended in 100 μl of culture medium in the absence or presence of peptides (100 nM) and loaded into Matrigel invasion chambers (BD Biosciences, Heidelberg, Germany), which were handled according to the supplier's manual. After 20 hours incubation time, invaded cells were fixed with methanol, stained with toluidine blue, and counted. Experiments were performed in triplets and from each well, 10 viewing fields were counted manually under the microscope. Differences between the values obtained were analysed using the Mann-Whitney U test.
(§3) ADAM8 was overexpressed by transfection in fibroblast (L929) and glioma (C6) cell lines which show no invasive potential under untransfected conditions. When ADAM8 expressing plasmids were transfected into these cell lines, the cells became highly invasive in Matrigel Invasion assays (e.g. as described in example 5). […] Invasion is also mediated by a soluble variant of ADAM8, which is released upon activation of ADAM8 in these cells.

recombinant ADAM10 = molecular target: T2, recombinant ADAM10 (Homo sapiens, UniProt O14672); assay: Fluorescence assay of recombinant ADAM10 with fluorogenic LAQA peptide substrate; format: biochemical; conditions: FIG. 2, peptides at 100 nM
T2 construct: purchased R&D systems
T2 sequence (O14672 214-748): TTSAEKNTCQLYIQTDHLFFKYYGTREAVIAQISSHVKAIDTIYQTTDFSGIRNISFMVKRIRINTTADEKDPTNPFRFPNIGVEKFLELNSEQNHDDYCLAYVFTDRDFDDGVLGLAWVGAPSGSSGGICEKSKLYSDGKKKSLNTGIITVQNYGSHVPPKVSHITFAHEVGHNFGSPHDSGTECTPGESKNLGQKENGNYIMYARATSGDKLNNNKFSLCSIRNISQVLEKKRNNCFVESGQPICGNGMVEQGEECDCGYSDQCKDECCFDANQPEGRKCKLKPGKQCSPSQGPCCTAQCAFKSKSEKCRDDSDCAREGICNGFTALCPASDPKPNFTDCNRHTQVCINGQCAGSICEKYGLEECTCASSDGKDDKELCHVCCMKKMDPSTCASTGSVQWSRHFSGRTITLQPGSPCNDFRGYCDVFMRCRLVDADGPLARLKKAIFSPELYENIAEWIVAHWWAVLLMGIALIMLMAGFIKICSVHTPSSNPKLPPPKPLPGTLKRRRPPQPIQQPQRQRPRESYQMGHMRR
Method: as §1

ADAM8 DC domain = molecular target: T3, ADAM8 DC domain (Mus musculus, UniProt Q05910); assay: Adhesion of ADAM8-expressing cells to plates coated with recombinant ADAM8 DC domain; format: cell-based; conditions: FIG. 8; concentration used in the range of 10 nM
T3 construct: recombinant ADAM8 disintegrin/cysteine-rich (DC) domain; Myc (C); His6 (C); made in house; host or cells: E. coli strain TOP10
T3 sequence (Q05910 402-643 limits assumed): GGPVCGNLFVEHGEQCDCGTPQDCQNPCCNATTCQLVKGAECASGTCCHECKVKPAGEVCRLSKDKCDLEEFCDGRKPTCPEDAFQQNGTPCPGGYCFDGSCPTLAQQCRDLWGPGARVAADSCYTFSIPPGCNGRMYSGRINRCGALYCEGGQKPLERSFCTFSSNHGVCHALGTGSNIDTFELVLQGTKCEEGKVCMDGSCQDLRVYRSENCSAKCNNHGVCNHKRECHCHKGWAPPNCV
Method: In this example, peptides synthesised as described in example 1 were used to target cell adhesion mediated by the ADAM8 DC domain. A recombinant DC domain of ADAM8 was expressed and purified from E. coli and then coated onto cell culture plates. Cells over-expressing ADAM8 were then allowed to bind to the ADAM8 DC domain on the plates.
96-well plates were coated with 50 μg/ml of recombinant ADAM8 DC protein in PBS at 4° C. for 16 h. To express the recombinant DC domain of ADAM8, the cDNA fragment encoding the A8 DC domain was generated by PCR using Platinum™ Pfx polymerase (Invitrogen) with the following primers: DCE-A8f, 5′-GGTGGCCCTGTGTGTGGAAAC-3′ (SEQ ID NO:17); DCE-A8r, 5′-TACACAGTTGGGTGGTGCCCA-3′ (SEQ ID NO:18). The resulting cDNA fragment was cloned into the bacterial expression vector pTrcHis2 (Invitrogen) containing a C-terminal Myc and His6 tag. This vector was transformed into E. coli strain TOP10 (Invitrogen). Recombinant protein expression was induced with 1 mM isopropyl-1-thio-D-galactopyranoside for 5 h to overnight. […]
After application of the recombinant protein and blocking with bovine serum albumin for 1 h, 10^5 cells in PBS or medium (with 5% FCS) were seeded onto the plates. […] After 1 h incubation at 37 C, the wells were rinsed 3× with PBS, and the remaining cells were quantified by counting 10 randomly chosen viewing fields (100-fold magnification). […]

ADAM10 = assay: Specificity test, ADAM catalytic/disintegrin construct, LAQA fluorescent substrate; format: biochemical; conditions: maximal concentration 10 μM
Method: (§4) The maximal concentration of the inhibitor peptide was 10 μM.
(§5) ADAM catalytic/disintegrin constructs were monitored at 5-min intervals using the indicated fluorescent substrates with excitation and emission wavelengths of 485 and 530 nm, respectively. The substrates were diluted from a 10 mM stock in DMSO to 10 μM in assay buffer containing 20 mM Tris, pH 8.0, and 6×10^−4% Brij-35. For experiments with ADAM8 only, 10 mM CaCl2 was added to the buffer. Reactions were run in a 96-well plate with either inhibitor (10 nM-10 μM) in 1% DMSO or a 1% DMSO control. Background wells contained substrate and 1% DMSO and were subtracted from all other wells. Endpoints were determined in wells containing substrate and an excess of ADAM17 for the TNF-alpha substrate and ADAM8 for the CD23 substrate. Concentrations of ADAM proteins were in the range of 2.0 nM for TACE, 10 nM for ADAM9, 5 nM for ADAM10, 10 nM for ADAM8, and 2 nM for ADAM12.

ADAM17 (TACE) = assay: as above; format: biochemical; conditions: maximal concentration 10 μM
Method: as §4, §5

ADAM12 = assay: as above; format: biochemical; conditions: maximal concentration 10 μM
Method: as §4, §5

ADAM9 = assay: Specificity test, ADAM catalytic/disintegrin construct, TNF peptide fluorescent substrate; format: biochemical; conditions: maximal concentration 10 μM
Method: as §4, §5

Mice (strain C57BL/6) = assay: Acute and chronic toxicity study in mice; format: in vivo, mouse
Method: To test for acute and for chronic toxicity, we used dosages of 1 μg, 5 μg, and 10 μg per gram of body weight in 100 μl of injection volume. Mice (strain C57BL/6) were either injected once (acute toxicity) or weekly three-times (chronic toxicity) intraperitoneal with the dosages indicated. All mice were analysed in cohorts of n=6, and NaCl injected mice were used as controls. […] We assessed spontaneous behaviour and motor performance of the mice. […] After 4 weeks, mice were sacrificed and representative organs were dissected and assessed histologically by normal hematoxylin/eosin (HE) staining. For each cohort of mice, one representative is documented for brain (cerebellum and cortex), liver, spleen, and kidney in FIG. 13.

[2] = test system: C6 glioma cells overexpressing ADAM8; assay: Matrigel invasion assay, C6 glioma cells overexpressing ADAM8; format: cell-based, rat
Method: as §2, §3

ADAM8 = assay: Specificity test, ADAM catalytic/disintegrin construct, CD23 fluorescent substrate; format: biochemical; conditions: read-out: ADAM inhibition with P1, IC50, 10 mM CaCl2 in buffer
Method: as §4, §5

IC50 (recombinant ADAM8; FIG. 1A, CD23 as substrate, read-out: IC50 for the inhibition of ADAM8) [nM]	Compound	ADAM-8 mediated cell invasion [1]	inhibition of ADAM10 (recombinant ADAM10)	inhibition of cell adhesion mediated by ADAM8 DC domain (ADAM8 DC domain)	inhibition of ADAM8 proteolytic activity (recombinant ADAM8; CD23 substrate)	concentration dependence of ADAM8 inhibition (recombinant ADAM8; FIG. 1C, 50-200 nM, CD23 substrate)	ADAM inhibition with P1 (ADAM10)	ADAM inhibition with P1 (ADAM17 (TACE))	ADAM inhibition with P1 (ADAM12)	ADAM inhibition with P1 (ADAM9)	spontaneous behaviour and motor performance (Mice (strain C57BL/6); 1, 5, 10 μg per gram body weight i.p., once or weekly three-times, 4 weeks)	survival and obvious abnormalities (Mice (strain C57BL/6); 1, 5, 10 μg per gram body weight i.p., once or weekly three-times, 4 weeks observation)	histology (HE staining) of brain, liver, spleen, kidney (Mice (strain C57BL/6); FIG. 13, after 4 weeks)	tumour cell invasion in ADAM8 expressing cells ([2]; FIG. 4, Example 5, 20 hours)	cell invasion, dose dependence ([2]; FIG. 10, Example 7)	ADAM-8 mediated cell invasion ([2]; FIG. 12, peptide 5 μM)	IC50 (ADAM8) [nM]
~50	CNC(=O)[C@H](Cc1ccccc1)NC(=O)[C@H](CC(C)C)[C@H](CSc1cccs1)C(=O)NO [BB-94, batimastat, reference compound]																
	CC(C)C[C@@H]1NC(=O)[C@H](CCCNC(=N)N)NC(=O)[C@H](CCCCN)NC(=O)[C@H](CC(=O)O)NC(=O)[C@H](CCCCN)NC(=O)[C@@H](O)CNC1=O [Peptide P1, c(RLsKDK)] (cyclo(RL[isoSer(2S)]KDK))	significantly blocked	little inhibition	very potent in the inhibition of cell adhesion	showed the most marked inhibition	concentration-dependant inhibition	No inh. at 10 μM	No inh. at 10 μM	No inh. at 10 μM	No inh. at 10 μM	not able to detect any differences in behaviour	all mice were alive and did not show any obvious abnormalities	did not show any evidence of toxicity	dramatically reduced tumour cell invasion	blocks cell invasion in a dose-dependent manner	significantly blocked	100
	H-RLSKDK-OH (not fully specified (bridges)) [Peptide P4]				little effect on ADAM8 activity												
